Molecular target: T1, tissue-nonspecific alkaline phosphatase (TNAP) (Homo sapiens, UniProt P05186)
T1 sequence (P05186 18-501): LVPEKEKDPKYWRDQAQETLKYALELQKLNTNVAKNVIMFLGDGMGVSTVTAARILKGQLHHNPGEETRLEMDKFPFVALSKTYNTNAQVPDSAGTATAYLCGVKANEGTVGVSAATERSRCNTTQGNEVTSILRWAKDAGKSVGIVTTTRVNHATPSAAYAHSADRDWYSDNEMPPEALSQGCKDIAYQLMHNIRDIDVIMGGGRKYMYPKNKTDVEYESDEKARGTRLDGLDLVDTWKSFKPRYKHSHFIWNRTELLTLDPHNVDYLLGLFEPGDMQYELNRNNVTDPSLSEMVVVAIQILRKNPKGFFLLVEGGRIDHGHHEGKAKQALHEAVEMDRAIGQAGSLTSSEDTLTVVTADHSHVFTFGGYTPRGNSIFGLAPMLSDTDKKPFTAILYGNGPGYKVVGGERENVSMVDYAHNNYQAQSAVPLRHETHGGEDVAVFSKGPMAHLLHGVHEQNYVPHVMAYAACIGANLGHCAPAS
Test: in vitro TNAP inhibition IC50
Type: biochemical

COc1ccc(Cl)cc1S(=O)(=O)Nc1cncc(C(N)=O)c1 [SBI-425] showed an IC50 of 14 nM.

From PMC4406354 (Journal of bone and mineral research : the official journal …, 2015)
